Reference: patent US20240287138A1, “CYCLIC PEPTIDES FOR INHIBITING TNF RECEPTOR 1 ACTIVITY” (Merck Sharp & Dohme LLC, priority 2023, published 2024)
pIC50, pKd: −log10 of the molar value. Numbered stars: 1 amine (or outer) side, 2 acyl side, 3 side chain; on linkers, the order of the positions; unused ones are H or OH. Square brackets hold non-standard residues; d marks the D form. Peptide text beside a SMILES is read from it. * marks the point of attachment. Trp(7-aza,1-CH2COOH) = N[C@@H](Cc1cn(CC(=O)O)c2ncccc12)C(=O)O; Trp(βS-Me,7-OMe) = COc1cccc2c([C@H](C)[C@H](N)C(=O)O)c[nH]c12; X49 = C[N+](C)(C)CC(=O)N[C@H]1C[C@H](C(=O)[*:2])N([*:1])C1; Trp(1-CH2COOH) = N[C@@H](Cc1cn(CC(=O)O)c2ccccc12)C(=O)O; X44 = NC(=O)c1ccc([C@@H](O)[C@H](N[*:1])C(=O)[*:2])cc1; Phe(4-SO2NH2) = N[C@@H](Cc1ccc(S(N)(=O)=O)cc1)C(=O)O; Trp(7-CN) = N#Cc1cccc2c(C[C@H](N)C(=O)O)c[nH]c12; Trp(7-Cl) = N[C@@H](Cc1c[nH]c2c(Cl)cccc12)C(=O)O; X27 = O=C(O)c1ccc(C[C@H](N[*:1])C(=O)[*:2])cc1F; Phe(4-CONH2) = NC(=O)c1ccc(C[C@H](N)C(=O)O)cc1; Phe(4-COOH) = N[C@@H](Cc1ccc(C(=O)O)cc1)C(=O)O; X30 = O=C([C@@H](N[*:1])[C@H](O)c1ccncc1)[*:2]; Trp(7-aza) = N[C@@H](Cc1c[nH]c2ncccc12)C(=O)O; Pip(5R-OH) = O=C(O)[C@@H]1CC[C@@H](O)CN1; X1 = O=C([C@@H]1CC[C@H](N[*:1])C1)[*:2]; 4Pal = N[C@@H](Cc1ccncc1)C(=O)O; NMeE = CN[C@@H](CCC(=O)O)C(=O)O; dHyp = O=C(O)[C@H]1C[C@H](O)CN1; αMeS = C[C@](N)(CO)C(=O)O; Carboxymethyl = O=C(O)C*; Nle = CCCC[C@H](N)C(=O)O; Sar = CNCC(=O)O

Legend:
[1] = target: T1, human soluble TNFR1 (sTNFR1) (Homo sapiens, UniProt P19438); assay: Human sTNFR1-peptide displacement assay (LanthaScreen Eu TR-FRET binding assay)
T1 construct: made in house; host or cells: Sf21 (baculovirus)
T1 sequence (P19438 with tags, fused parts or gaps): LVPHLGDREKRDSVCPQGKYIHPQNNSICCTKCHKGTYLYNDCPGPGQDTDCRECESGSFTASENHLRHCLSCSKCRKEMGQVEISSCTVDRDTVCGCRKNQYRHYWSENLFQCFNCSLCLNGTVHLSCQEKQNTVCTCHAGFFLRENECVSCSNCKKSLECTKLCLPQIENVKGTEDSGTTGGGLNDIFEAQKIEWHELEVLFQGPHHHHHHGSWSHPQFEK
In short: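 Readout is the 665/615 nm TR-FRET ratio (Eu anti-His donor, streptavidin-Alexa647 acceptor), normalized to DMSO and saturating displacer, fit by Morrison-based five-parameter logistic for Kd^app. His-tagged sTNFR1 (1-211) prebound to 100 nM biotinylated peptide SEQ ID NO.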

[2] = target: T2, TNFα-induced NF-κB signal transduction pathway (TNFR1 signaling) in THP-1 cells (Homo sapiens, UniProt P19438); assay: THP-1 Lucia NF-κB reporter cell assay, inhibition of TNFα-induced NF-κB signaling; type: cell-based; conditions: THP-1 NF-κB Lucia reporter cells, 10 ng/mL TNFα, 16-18 h, secreted luciferase; read-out: THP-1 IC50
T2 sequence (P19438 30-455): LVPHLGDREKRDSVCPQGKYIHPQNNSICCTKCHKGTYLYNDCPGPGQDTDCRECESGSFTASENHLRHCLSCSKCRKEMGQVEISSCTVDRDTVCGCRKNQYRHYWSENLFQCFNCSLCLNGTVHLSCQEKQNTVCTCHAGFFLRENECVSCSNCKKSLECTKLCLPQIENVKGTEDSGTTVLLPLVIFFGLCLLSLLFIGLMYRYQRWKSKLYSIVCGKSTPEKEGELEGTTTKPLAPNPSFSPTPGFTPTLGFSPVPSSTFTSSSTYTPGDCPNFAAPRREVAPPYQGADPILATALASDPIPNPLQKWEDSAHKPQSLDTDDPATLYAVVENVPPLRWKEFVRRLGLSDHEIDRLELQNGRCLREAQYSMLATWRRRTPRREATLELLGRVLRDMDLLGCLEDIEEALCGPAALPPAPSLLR
In short: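 Macrocyclic peptides were preincubated 1 h at 37 °C with THP-1 NF-κB-Lucia reporter cells (20,000 cells/well) in antibiotic-free RPMI 1640/10% FBS, then stimulated with 10 ng/mL human TNFα overnight (16-18 h). Secreted luciferase in supernatant was read by luminescence; IC50 from 4-parameter logistic fits.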

## CCCC[C@@H]1NC(=O)[C@@H]2CC[C@@H](C2)NC(=O)[C@H]([C@@H](C)c2c[nH]c3c(OC)cccc23)NC(=O)CN(C)C(=O)[C@H](Cc2ccc(OCC(=O)O)cc2)NC(=O)[C@H](Cc2ccc(S(N)(=O)=O)cc2)NC(=O)[C@](C)(CO)NC(=O)[C@H](Cc2c[nH]c3c(C#N)cccc23)NC(=O)[C@H](Cc2ccncc2)NC(=O)[C@H](CC(N)=O)NC(=O)[C@H]2C[C@H](OCC(=O)O)CN2C(=O)[C@H](Cc2cn(CC(=O)O)c3ncccc23)NC(=O)[C@@H]2CC[C@@H](O)CN2C(=O)[C@H](Cc2ccncc2)NC1=O [SEQ ID NO. 115] (cyclo([4Pal][Trp(7-CN)][αMeS][Phe(4-SO2NH2)]Y(Carboxymethyl)[Sar][Trp(βS-Me,7-OMe)][X1][Nle][4Pal][Pip(5R-OH)][Trp(7-aza,1-CH2COOH)][dHyp](Carboxymethyl)N))
[1]
  pKd: 9.72
[2]
  pIC50: 8.85

## CCCC[C@@H]1NC(=O)[C@@H]2CC[C@@H](C2)NC(=O)[C@H]([C@@H](C)c2c[nH]c3c(OC)cccc23)NC(=O)CN(C)C(=O)[C@H](Cc2ccc(C(=O)O)cc2)NC(=O)[C@H](Cc2ccc(C(N)=O)cc2)NC(=O)[C@](C)(CO)NC(=O)[C@H](Cc2c[nH]c3c(C#N)cccc23)NC(=O)[C@H](Cc2ccc(C(=O)O)c(F)c2)NC(=O)[C@H](CC(N)=O)NC(=O)[C@H]2C[C@H](NC(=O)C[N+](C)(C)C)CN2C(=O)[C@H](Cc2c[nH]c3ncccc23)NC(=O)[C@@H]2CC[C@@H](O)CN2C(=O)[C@H](Cc2ccncc2)NC1=O [SEQ ID NO. 116] (cyclo([4Pal][Pip(5R-OH)][Trp(7-aza)][X49]N[X27][Trp(7-CN)][αMeS][Phe(4-CONH2)][Phe(4-COOH)][Sar][Trp(βS-Me,7-OMe)][X1][Nle]))
[1]
  pKd: 10.10
[2]
  pIC50: 9.40

## CCCC[C@@H]1NC(=O)[C@@H]2CC[C@@H](C2)NC(=O)[C@H]([C@@H](C)c2c[nH]c3c(OC)cccc23)NC(=O)CN(C)C(=O)[C@H](Cc2ccc(C(=O)O)cc2)NC(=O)[C@H]([C@H](O)c2ccc(C(N)=O)cc2)NC(=O)[C@](C)(CO)NC(=O)[C@H](Cc2c[nH]c3c(C#N)cccc23)NC(=O)[C@H](Cc2ccc(S(N)(=O)=O)cc2)NC(=O)[C@H](CC(N)=O)NC(=O)[C@H]2C[C@H](O)CN2C(=O)[C@H](Cc2cn(CC(=O)O)c3ccccc23)NC(=O)[C@@H]2CC[C@@H](O)CN2C(=O)[C@H](Cc2ccncc2)NC1=O [SEQ ID NO. 119] (cyclo([4Pal][Pip(5R-OH)][Trp(1-CH2COOH)][dHyp]N[Phe(4-SO2NH2)][Trp(7-CN)][αMeS][X44][Phe(4-COOH)][Sar][Trp(βS-Me,7-OMe)][X1][Nle]))
[1]
  pKd: 9.92
[2]
  pIC50: 9.15

## CCCC[C@@H]1NC(=O)[C@@H]2CC[C@@H](C2)NC(=O)[C@H]([C@@H](C)c2c[nH]c3c(OC)cccc23)NC(=O)CN(C)C(=O)[C@H](Cc2ccc(OCC(=O)O)cc2)NC(=O)[C@H](Cc2ccc(C(N)=O)cc2)NC(=O)[C@](C)(CO)NC(=O)[C@H](Cc2c[nH]c3c(Cl)cccc23)NC(=O)[C@H](Cc2ccncc2)NC(=O)[C@H](CC(N)=O)NC(=O)[C@H](CCC(=O)O)N(C)C(=O)[C@H](Cc2c[nH]c3ccccc23)NC(=O)[C@@H]2CC[C@@H](O)CN2C(=O)[C@H](Cc2ccncc2)NC1=O [SEQ ID NO. 126] (cyclo([4Pal][Trp(7-Cl)][αMeS][Phe(4-CONH2)]Y(Carboxymethyl)[Sar][Trp(βS-Me,7-OMe)][X1][Nle][4Pal][Pip(5R-OH)]W[NMeE]N))
[1]
  pKd: 10.10
[2]
  pIC50: 9.10

## CCCC[C@@H]1NC(=O)[C@@H]2CC[C@@H](C2)NC(=O)[C@H]([C@@H](C)c2c[nH]c3c(OC)cccc23)NC(=O)CN(C)C(=O)[C@H](Cc2ccc(C(N)=O)cc2)NC(=O)[C@H](Cc2ccc(C(N)=O)cc2)NC(=O)[C@](C)(CO)NC(=O)[C@H](Cc2c[nH]c3c(C#N)cccc23)NC(=O)[C@H]([C@H](O)c2ccncc2)NC(=O)[C@H](CC(N)=O)NC(=O)[C@H]2C[C@H](OCC(=O)O)CN2C(=O)[C@H](Cc2cn(CC(=O)O)c3ccccc23)NC(=O)[C@@H]2CC[C@@H](O)CN2C(=O)[C@H](Cc2ccncc2)NC1=O [SEQ ID NO. 129] (cyclo([4Pal][Pip(5R-OH)][Trp(1-CH2COOH)][dHyp](Carboxymethyl)N[X30][Trp(7-CN)][αMeS][Phe(4-CONH2)][Phe(4-CONH2)][Sar][Trp(βS-Me,7-OMe)][X1][Nle]))
[1]
  pKd: 9.32
[2]
  pIC50: 8.51
